Experimental data published in patent US20230085307A1, “PYRIDAZINONE COMPOUND AND HERBICIDE” (NISSAN CHEMICAL CORPORATION, priority 2019, published 2023).

Tests used:
blackgrass [1] = assay: Test Example 4: herbicidal effect by soil treatment (Table 19, symbol J); type: in vivo, blackgrass (Alopecurus myosuroides)
Method in brief: (§1)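 In this soil treatment, the formulated compound reached the seeds only through the soil: seeds were buried about 1.5 cm deep in sterilized diluvial soil, then the diluted emulsion was sprayed over the surface. After three weeks at 25° C. to 30° C. in a greenhouse, effects were graded on criteria from an earlier test.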

Japanese bulrush = assay: Test Example 2: herbicidal activity, application during weed generation under submerged conditions (Table 17, symbol B); type: in vivo, Japanese bulrush (Schoenoplectus juncoides); conditions: application during weed generation, submerged conditions
Method in brief: (§2)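 Effect on each weed is rated three weeks post-treatment, using the same scoring criteria as the preceding test. Plants grow from mixed-sown seed in flooded alluvial soil (4 cm water) at 25° C. to 30° C., and are treated at one to two leaves with diluted emulsion dropped onto the water.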

lambsquarters = assay: Test Example 4: herbicidal effect by soil treatment (Table 19, symbol O); type: in vivo, lambsquarters (Chenopodium album)
Method in brief: as §1

velvetleaf = assay: Test Example 5: herbicidal effect by foliage application, plastic box (Table 20, symbol M); type: in vivo, velvetleaf (Abutilon theophrasti); conditions: foliage application, three weeks after application
Method in brief: (§3)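 Plants were sown into sterilized diluvial soil under about 1.5 cm cover and kept in a greenhouse at 25° C. to 30° C. Fourteen days on, foliage received an even spray of the diluted emulsion. Herbicidal or crop effect was judged three weeks afterwards.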

false cleavers [2] = assay: Test Example 5: herbicidal effect by foliage application, plastic box (Table 20, symbol Q); type: in vivo, false cleavers (Galium spurium); conditions: foliage application, three weeks after application
Method in brief: as §3

oval-leafed pondweed = assay: Test Example 2: herbicidal activity, application during weed generation under submerged conditions (Table 17, symbol C); type: in vivo, oval-leafed pondweed (Monochoria vaginalis); conditions: application during weed generation, submerged conditions
Method in brief: as §2

Italian ryegrass [3] = assay: Test Example 4: herbicidal effect by soil treatment (Table 19, symbol K); type: in vivo, Italian ryegrass (Lolium multiflorum)
Method in brief: as §1

late watergrass [4] = assay: Test Example 1: herbicidal activity, application before weed generation under submerged conditions (Table 16, symbol A); type: in vivo, late watergrass (Echinochloa oryzicola)
Method in brief: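 Emulsion formulation, water-diluted to set dose, was put onto the flooded surface (4 cm depth, alluvial soil) the same day weeds were sown and 2.5-leaf rice transplanted. After 3 weeks at 25-30 °C under glass, each species was rated 0 (≤5% kill) to 5 (≥90% kill).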

chickweed [5] = assay: Test Example 4: herbicidal effect by soil treatment (Table 19, symbol P); type: in vivo, common chickweed (Stellaria media)
Method in brief: as §1

false cleavers [6] = assay: Test Example 4: herbicidal effect by soil treatment (Table 19, symbol Q); type: in vivo, false cleavers (Galium spurium)
Method in brief: as §1

southern crabgrass = assay: Test Example 5: herbicidal effect by foliage application, plastic box (Table 20, symbol F); type: in vivo, southern crabgrass (Digitaria ciliaris); conditions: foliage application, three weeks after application
Method in brief: as §3

blackgrass [7] = assay: Test Example 5: herbicidal effect by foliage application, plastic box (Table 20, symbol J); type: in vivo, blackgrass (Alopecurus myosuroides); conditions: foliage application, three weeks after application
Method in brief: as §3

persian speedwell = assay: Test Example 4: herbicidal effect by soil treatment (Table 19, symbol R); type: in vivo, Persian speedwell (Veronica persica)
Method in brief: as §1

chickweed [8] = assay: Test Example 5: herbicidal effect by foliage application, plastic box (Table 20, symbol P); type: in vivo, common chickweed (Stellaria media); conditions: foliage application, three weeks after application
Method in brief: as §3

redroot pigweed = assay: Test Example 5: herbicidal effect by foliage application, plastic box (Table 20, symbol N); type: in vivo, redroot pigweed (Amaranthus retroflexus); conditions: foliage application, three weeks after application
Method in brief: as §3

wild oat = assay: Test Example 4: herbicidal effect by soil treatment (Table 19, symbol I); type: in vivo, wild oat (Avena fatua)
Method in brief: as §1

Italian ryegrass [9] = assay: Test Example 5: herbicidal effect by foliage application, plastic box (Table 20, symbol K); type: in vivo, Italian ryegrass (Lolium multiflorum); conditions: foliage application, three weeks after application
Method in brief: as §3

late watergrass [10] = assay: Test Example 2: herbicidal activity, application during weed generation under submerged conditions (Table 17, symbol A); type: in vivo, late watergrass (Echinochloa oryzicola); conditions: application during weed generation, submerged conditions
Method in brief: as §2

[11] = amount of applied herbicide 320 g/ha
[12] = amount of applied herbicide 310 g/ha

SMILES	J: blackgrass, herbicidal effect grade (blackgrass [1]; [11])	herbicidal effect rating, B: Japanese bulrush (Japanese bulrush; AAH 320 g/ha)	O: lambsquarters, herbicidal effect grade (lambsquarters; [11])	M: velvetleaf, herbicidal effect grade (velvetleaf; 320 g/ha)	Q: false cleavers, herbicidal effect grade (false cleavers [2]; 320 g/ha)	herbicidal effect rating, C: oval-leafed pondweed (oval-leafed pondweed; AAH 320 g/ha)	K: Italian ryegrass, herbicidal effect grade (Italian ryegrass [3]; [11])	Herbicidal effect, A: late watergrass (late watergrass [4]; [11])	P: chickweed, herbicidal effect grade (chickweed [5]; [11])	Q: false cleavers, herbicidal effect grade (false cleavers [6]; [11])	F: southern crabgrass, herbicidal effect grade (southern crabgrass; 320 g/ha)	J: blackgrass, herbicidal effect grade (blackgrass [7]; 320 g/ha)	R: persian speedwell, herbicidal effect grade (persian speedwell; [11])	P: chickweed, herbicidal effect grade (chickweed [8]; 320 g/ha)	N: redroot pigweed, herbicidal effect grade (redroot pigweed; 320 g/ha)	I: wild oat, herbicidal effect grade (wild oat; [11])	K: Italian ryegrass, herbicidal effect grade (Italian ryegrass [9]; 320 g/ha)	herbicidal effect rating, A: late watergrass (late watergrass [10]; AAH 320 g/ha)	other results
CCCC(=O)Oc1c(C)nn(C)c(=O)c1-c1c(-c2ccc(F)cc2OC)sc2cc(OC)ccc12 [3-077]	3 (Herbicidal rate of 40% or more and less than 70%)	4 (Herbicidal rate of 70% or more and less than 90%)	4 (Herbicidal rate of 70% or more and less than 90%)	4 (Herbicidal rate of 70% or more and less than 90%)	3 (Herbicidal rate of 40% or more and less than 70%)	4 (Herbicidal rate of 70% or more and less than 90%)	3 (Herbicidal rate of 40% or more and less than 70%)	5 (Herbicidal rate of 90% or more (almost completely withered))	4 (Herbicidal rate of 70% or more and less than 90%)	2 (Herbicidal rate of 20% or more and less than 40%)	0 (Herbicidal rate of 5% or less (almost no effect))	4 (Herbicidal rate of 70% or more and less than 90%)	4 (Herbicidal rate of 70% or more and less than 90%)	5 (Herbicidal rate of 90% or more (almost completely withered))	3 (Herbicidal rate of 40% or more and less than 70%)	2 (Herbicidal rate of 20% or more and less than 40%)	3 (Herbicidal rate of 40% or more and less than 70%)	2 (Herbicidal rate of 20% or more and less than 40%)	–
CCOc1ccccc1-c1sc2cc(OC)ccc2c1-c1c(O)c(C)nn(CC)c1=O [3-085]	1 (Herbicidal rate of 5% or more and less than 20%)	3 (Herbicidal rate of 40% or more and less than 70%)	3 (Herbicidal rate of 40% or more and less than 70%)	5 (Herbicidal rate of 90% or more (almost completely withered))	4 (Herbicidal rate of 70% or more and less than 90%)	3 (Herbicidal rate of 40% or more and less than 70%)	0 (Herbicidal rate of 5% or less (almost no effect))	5 (Herbicidal rate of 90% or more (almost completely withered))	3 (Herbicidal rate of 40% or more and less than 70%)	0 (Herbicidal rate of 5% or less (almost no effect))	5 (Herbicidal rate of 90% or more (almost completely withered))	4 (Herbicidal rate of 70% or more and less than 90%)	5 (Herbicidal rate of 90% or more (almost completely withered))	5 (Herbicidal rate of 90% or more (almost completely withered))	5 (Herbicidal rate of 90% or more (almost completely withered))	0 (Herbicidal rate of 5% or less (almost no effect))	0 (Herbicidal rate of 5% or less (almost no effect))	0 (Herbicidal rate of 5% or less (almost no effect))	–
CCCC(=O)Oc1c(C)nn(C)c(=O)c1-c1c(-c2ccccc2OC)sc2cc(OCC)ccc12 [3-090]	–	–	–	–	–	–	–	–	–	–	–	–	–	–	–	–	–	–	J: blackgrass, herbicidal effect grade (blackgrass [1]; [12]): 4 (Herbicidal rate of 70% or more and less than 90%); herbicidal effect rating, B: Japanese bulrush (Japanese bulrush; AAH 310 g/ha): 4 (Herbicidal rate of 70% or more and less than 90%); O: lambsquarters, herbicidal effect grade (lambsquarters; [12]): 4 (Herbicidal rate of 70% or more and less than 90%); M: velvetleaf, herbicidal effect grade (velvetleaf; 310 g/ha): 5 (Herbicidal rate of 90% or more (almost completely withered)); Q: false cleavers, herbicidal effect grade (false cleavers [2]; 310 g/ha): 5 (Herbicidal rate of 90% or more (almost completely withered)); herbicidal effect rating, C: oval-leafed pondweed (oval-leafed pondweed; AAH 310 g/ha): 5 (Herbicidal rate of 90% or more (almost completely withered)); K: Italian ryegrass, herbicidal effect grade (Italian ryegrass [3]; [12]): 4 (Herbicidal rate of 70% or more and less than 90%); Herbicidal effect, A: late watergrass (late watergrass [4]; [12]): 5 (Herbicidal rate of 90% or more (almost completely withered)); P: chickweed, herbicidal effect grade (chickweed [5]; [12]): 4 (Herbicidal rate of 70% or more and less than 90%); Q: false cleavers, herbicidal effect grade (false cleavers [6]; [12]): 5 (Herbicidal rate of 90% or more (almost completely withered)); F: southern crabgrass, herbicidal effect grade (southern crabgrass; 310 g/ha): 3 (Herbicidal rate of 40% or more and less than 70%); J: blackgrass, herbicidal effect grade (blackgrass [7]; 310 g/ha): 4 (Herbicidal rate of 70% or more and less than 90%); R: persian speedwell, herbicidal effect grade (persian speedwell; [12]): 5 (Herbicidal rate of 90% or more (almost completely withered)); P: chickweed, herbicidal effect grade (chickweed [8]; 310 g/ha): 5 (Herbicidal rate of 90% or more (almost completely withered)); N: redroot pigweed, herbicidal effect grade (redroot pigweed; 310 g/ha): 5 (Herbicidal rate of 90% or more (almost completely withered)); I: wild oat, herbicidal effect grade (wild oat; [12]): 0 (Herbicidal rate of 5% or less (almost no effect)); K: Italian ryegrass, herbicidal effect grade (Italian ryegrass [9]; 310 g/ha): 5 (Herbicidal rate of 90% or more (almost completely withered)); herbicidal effect rating, A: late watergrass (late watergrass [10]; AAH 310 g/ha): 4 (Herbicidal rate of 70% or more and less than 90%)
CCOc1ccc2c(-c3c(O)c(C)nn(C)c3=O)c(-c3ccc(OC)cc3)sc2c1 [3-091]	0 (Herbicidal rate of 5% or less (almost no effect))	3 (Herbicidal rate of 40% or more and less than 70%)	5 (Herbicidal rate of 90% or more (almost completely withered))	4 (Herbicidal rate of 70% or more and less than 90%)	5 (Herbicidal rate of 90% or more (almost completely withered))	3 (Herbicidal rate of 40% or more and less than 70%)	0 (Herbicidal rate of 5% or less (almost no effect))	0 (Herbicidal rate of 5% or less (almost no effect))	4 (Herbicidal rate of 70% or more and less than 90%)	5 (Herbicidal rate of 90% or more (almost completely withered))	2 (Herbicidal rate of 20% or more and less than 40%)	3 (Herbicidal rate of 40% or more and less than 70%)	5 (Herbicidal rate of 90% or more (almost completely withered))	5 (Herbicidal rate of 90% or more (almost completely withered))	4 (Herbicidal rate of 70% or more and less than 90%)	0 (Herbicidal rate of 5% or less (almost no effect))	0 (Herbicidal rate of 5% or less (almost no effect))	0 (Herbicidal rate of 5% or less (almost no effect))	–
